Laboratory results as given in US11795460B2, “Compositions and methods for TTR gene editing and treating ATTR amyloidosis” (Intellia Therapeutics, Inc., priority 2017, dated 2023).

Key:
TTR [1] = assay: TTR editing in HepG2 cells transfected with Spy Cas9 mRNA and dgRNAs (Table 6); assay type: cell-based, human; conditions: HepG2 cells co-transfected with Spy Cas9 mRNA (SEQ ID NO:2) and dgRNAs
Experimental: HepG2 cell line. The human hepatocellular carcinoma cell line HepG2 (American Type Culture Collection, Cat. HB-8065) was cultured in DMEM media supplemented with 10% fetal bovine serum. Cells were counted and plated on Bio-coat collagen I coated 96-well plates (ThermoFisher, Cat. 877272) at a density of 10,000 cells/well in a 96-well plate 24 hours prior to transfection. Cells were transfected with Lipofectamine 2000 (ThermoFisher, Cat. 11668019) per the manufacturer's protocol. Cells were sequentially transfected with lipoplex containing Spy Cas9 mRNA (100 ng), Lipofectamine 2000 (0.2 μL/well) and OptiMem followed by a separate lipoplex containing individual crRNA (25 nM), tracer RNA (25 nM), Lipofectamine 2000 (0.2 μL/well) and OptiMem.
(§1) Transfected cells were harvested post-transfection at 24, 48, or 72 hours. The genomic DNA was extracted from each well of a 96-well plate using 50 μL/well BuccalAmp DNA Extraction solution (Epicentre, Cat. QE09050) per manufacturer's protocol. All DNA samples were subjected to PCR and subsequent NGS analyses, as described herein.
(§2) To quantitatively determine the efficiency of editing at the target location in the genome, sequencing was utilized to identify the presence of insertions and deletions introduced by gene editing.
(§3) Primers were designed around the target site within the gene of interest (e.g. TTR), and the genomic area of interest was amplified.
(§4) Additional PCR was performed per the manufacturer's protocols (Illumina) to add chemistry for sequencing. The amplicons were sequenced on an Illumina MiSeq instrument. The reads were aligned to a reference genome (e.g., the human reference genome (hg38), the cynomologus reference genome (mf5), the rat reference genome (rn6), or the mouse reference genome (mm10)) after eliminating those having low quality scores. The resulting files containing the reads were mapped to the reference genome (BAM files), where reads that overlapped the target region of interest were selected and the number of wild type reads versus the number of reads which contain an insertion, substitution, or deletion was calculated.
(§5) The editing percentage (e.g., the “editing efficiency” or “percent editing” or “indel frequency”) is defined as the total number of sequence reads with insertions/deletions (“indels”) or substitutions over the total number of sequence reads, including wild type.
(§6) Guides in dgRNA format targeting human TTR and the cynomologus matched sequences were delivered to HEK293 Cas9, HUH7 and HepG2 cell lines, as well as primary human hepatocytes and primary cynomolgus monkey hepatocytes as described in Example 1. Percent editing was determined for crRNAs comprising each guide sequence across each cell type and the guide sequences were then rank ordered based on highest % edit. The screening data for the guide sequences in Table 1 in all five cell lines are listed below (Table 4 through 11).

TTR [2] = assay: TTR editing in primary human hepatocytes electroporated with Spy Cas9 protein loaded with dgRNAs (Table 7); assay type: cell-based; conditions: dgRNA electroporated with Spy Cas9 protein (RNP)
Experimental: (§7) Primary liver hepatocytes. Primary human liver hepatocytes (PHH) and primary cynomolgus liver hepatocytes (PCH) (Gibco) were cultured per the manufacturer's protocol (Invitrogen, protocol 11.28.2012). In brief, the cells were thawed and resuspended in hepatocyte thawing medium with supplements (Gibco, Cat. CM7000) followed by centrifugation at 100 g for 10 minutes for human and 80 g for 4 minutes for cyno. The supernatant was discarded and the pelleted cells resuspended in hepatocyte plating medium plus supplement pack (Invitrogen, Cat. A1217601 and CM3000). Cells were counted and plated on Bio-coat collagen I coated 96-well plates (ThermoFisher, Cat. 877272) at a density of 33,000 cells/well for human or 60,000 cells/well for cyno (or 65,000 cells/well when assaying effects on TTR protein, described further below). Plated cells were allowed to settle and adhere for 6 or 24 hours in a tissue culture incubator at 37° C. and 5% CO2 atmosphere. After incubation cells were checked for monolayer formation and media was replaced with hepatocyte culture medium with serum-free supplement pack (Invitrogen, Cat. A1217601 and CM4000).
(§8) […] formation was performed prior to electroporation or transfection of Spy Cas9 protein loaded with guide RNAs (RNPs) onto cells. For dual guide (dgRNAs), individual crRNA and trRNA was pre-annealed by mixing equivalent amounts of reagent and incubating at 95° C. for 2 min and cooling to room temperature. Single guide (sgRNAs) were boiled at 95° C. for 2 min and cooling to room temperature. The boiled dgRNA or sgRNA was incubated with Spy Cas9 protein in Optimem for 10 minutes at room temperature to form a ribonucleoprotein (RNP) complex.
For RNP electroporation into primary human and cyno hepatocytes, the cells are thawed and resuspended in Lonza electroporation Primary Cell P3 buffer at a concentration of 2500 cells per μL for human hepatocytes and 3500 cells per μL for cyno hepatocytes. A volume of 20 μL of resuspended cells and 5 μL of RNP are mixed together per guide. 20 μL of the mixture is placed into a Lonza electroporation plate. The cells were electroporated using the Lonza nucleofector with the preset protocol EX-147. Post electroporation, the cells are transferred into a Biocoat plate containing pre-warmed maintenance media and placed in a tissue culture incubator at 37° C. and 5% CO2.
as §1, §2, §3, §4
The editing percentage (e.g., the “editing efficiency” or “percent editing” or “indel frequency”) is defined as the total number of sequence reads with insertions/deletions (“indels”) or substitutions over the total number of sequence reads, including wild type. […]

TTR [3] = assay: TTR editing in primary human hepatocytes transfected with Spy Cas9 mRNA and dgRNAs (Table 9); assay type: cell-based; conditions: dgRNA co-transfected with Spy Cas9 mRNA (SEQ ID NO:2)
Experimental: as §7
Lipofectamine RNAiMax (ThermoFisher, Cat. 13778150) based transfections were conducted as per the manufacturer's protocol. Cells were sequentially transfected with a lipoplex containing Spy Cas9 mRNA (100 ng), Lipofectamine RNAiMax (0.4 μL/well) and OptiMem followed by a separate lipoplex containing crRNA (25 nM) and tracer RNA (25 nM) or sgRNA (25 nM), Lipofectamine RNAiMax (0.4 μL/well) and OptiMem.
as §1, §2, §3, §4, §5, §6

TTR [4] = assay: TTR editing in primary human hepatocytes transfected with Spy Cas9 protein (RNP) loaded with dgRNAs (Table 8); assay type: cell-based; conditions: dgRNA transfected with Spy Cas9 protein (RNP)
Experimental: as §7, §8
For RNP lipoplex transfections, cells were transfected with Lipofectamine RNAiMAX (ThermoFisher, Cat. 13778150) per the manufacturer's protocol. Cells were transfected with an RNP containing Spy Cas9 (10 nM), individual guide (10 nM), tracer RNA (10 nM), Lipofectamine RNAiMAX (1.0 μL/well) and OptiMem. RNP formation was performed as described above.
as §1, §2, §3, §4, §5
Guides in dgRNA format targeting human TTR and the cynomologus matched sequences were delivered to HEK293 Cas9, HUH7 and HepG2 cell lines, as well as primary human hepatocytes and primary cynomolgus monkey hepatocytes as described in Example 1. […]

TTR [5] = assay: TTR editing in HEK293_Cas9 cells transfected with dgRNAs (Table 4); assay type: cell-based, human; conditions: HEK293_Cas9 cells (constitutively express Spy Cas9) transfected with dgRNAs
Experimental: HEK293 Cas9 cell line. The human embryonic kidney adenocarcinoma cell line HEK293 constitutively expressing Spy Cas9 (“HEK293_Cas9”) was cultured in DMEM media supplemented with 10% fetal bovine serum and 500 μg/ml G418. Cells were plated at a density of 10,000 cells/well in a 96-well plate 24 hours prior to transfection. Cells were transfected with Lipofectamine RNAiMAX (ThermoFisher, Cat. 13778150) per the manufacturer's protocol. Cells were transfected with a lipoplex containing individual crRNA (25 nM), trRNA (25 nM), Lipofectamine RNAiMAX (0.3 μL/well) and OptiMem.
as §1, §2, §3, §4, §5, §6

TTR [6] = assay: TTR editing in HUH7 cells transfected with Spy Cas9 mRNA and dgRNAs (Table 5); assay type: cell-based, human; conditions: HUH7 cells co-transfected with Spy Cas9 mRNA (SEQ ID NO:2) and dgRNAs
Experimental: HUH7 cell line. The human hepatocellular carcinoma cell line HUH7 (Japanese Collection of Research Bioresources Cell Bank, Cat. JCRB0403) was cultured in DMEM media supplemented with 10% fetal bovine serum. Cells were plated on at a density of 15,000 cells/well in a 96-well plate 20 hours prior to transfection. Cells were transfected with Lipofectamine MessengerMAX (ThermoFisher, Cat. LMRNA003) per the manufacturer's protocol. Cells were sequentially transfected with a lipoplex containing Spy Cas9 mRNA (100 ng), MessengerMAX (0.3 μL/well) and OptiMem followed by a separate lipoplex containing individual crRNA (25 nM), tracer RNA (25 nM), MessengerMAX (0.3 μL/well) and OptiMem.
as §1, §2, §3, §4, §5, §6

Row | Sequence | Avg % Deletion (TTR [1]) [%] | Avg % Edit (TTR [1]) [%] | Avg % Insert (TTR [1]) [%] | Avg % Deletion (TTR [2]) [%] | Avg % Edit (TTR [2]) [%] | Avg % Insert (TTR [2]) [%] | Avg % Deletion (TTR [3]) [%] | Avg % Edit (TTR [3]) [%] | Avg % Insert (TTR [3]) [%] | Avg % Deletion (TTR [4]) [%] | Avg % Edit (TTR [4]) [%] | Avg % Insert (TTR [4]) [%] | Avg % Deletion (TTR [5]) [%] | Avg % Edit (TTR [5]) [%] | Avg % Insert (TTR [5]) [%] | Avg % Deletion (TTR [6]) [%] | Avg % Edit (TTR [6]) [%] | Avg % Insert (TTR [6]) [%]
1 | AAAUCUUACUGGAAGGCACU (tested as dual guide RNA, chemistry not given here) [CR005306] | 2.87 | 24.07 | 21.20 | 1.37 | 9.43 | 8.07 | 2.87 | 9.97 | 7.13 | 2.57 | 18.81 | 16.24 | – | – | – | – | – | –
2 | AAUGGUGUAGCGGCGGGGGC (tested as dual guide RNA, chemistry not given here) [CR003375] | 0.10 | 2.06 | 1.96 | 0.07 | 1.33 | 1.27 | 0.03 | 1.27 | 1.23 | 0.11 | 5.04 | 4.93 | 10.85 | 11.63 | 0.78 | 2.25 | 2.38 | 0.26
3 | ACCUGGGAGCCAUUUGCCUC (tested as dual guide RNA, chemistry not given here) [CR003354] | 0.53 | 5.36 | 4.84 | 0.03 | 2.50 | 2.43 | 0.13 | 2.97 | 2.87 | 0.23 | 10.31 | 10.07 | 15.90 | 18.46 | 2.56 | 11.46 | 12.27 | 1.25
4 | CACAUGCACGGCCACAUUGA (tested as dual guide RNA, chemistry not given here) [CR003350] | 4.44 | 29.60 | 25.16 | 5.73 | 28.13 | 22.40 | 10.33 | 26.63 | 16.33 | 5.07 | 24.84 | 19.77 | 16.77 | 22.31 | 5.54 | 41.64 | 52.91 | 13.43
5 | CGGCAAUGGUGUAGCGGCGG (tested as dual guide RNA, chemistry not given here) [CR003376] | 0.24 | 14.41 | 14.16 | 0.03 | 1.90 | 1.87 | 0.13 | 2.83 | 2.73 | 0.14 | 5.00 | 4.86 | 26.81 | 28.16 | 1.35 | 18.55 | 19.42 | 1.37
6 | GCGGCGGGGGCCGGAGUCGU (tested as dual guide RNA, chemistry not given here) [CR003374] | 0.31 | 5.43 | 5.12 | 0.10 | 0.80 | 0.70 | 0.03 | 0.27 | 0.27 | 0.14 | 2.65 | 2.52 | 10.10 | 10.91 | 0.81 | 2.87 | 3.10 | 0.45
